{"source": "patent US9522130B2", "about": "“Use of miR-221 and 222 lowering agents to prevent cardiovascular disease in diabetic subjects” (priority 2013, dated 2016)", "key": {"[1]": {"test_system": "diabetic and non-diabetic mice", "experiment": "Femoral artery wire injury, neointima formation / intimal thickening", "assay_type": "in vivo", "description": "FIG. 1. Neointimal hyperplasia is increased in an mTOR-independent manner in diabetic mice. Femoral artery wire injury was performed in the mice in diabetic mice (DM) and non-diabetic mice […] and neointima formation was assessed at 14 days post-injury. […] Data represent the mean±SEM. † indicates p<0.05 by ANOVA with Tukey's HSD.\nFIG. 10. Diabetes induces an increase in miR-221/222 that increases intimal thickening. Intimal thickening was measured in the wire injured femoral arteries of diabetic and non-diabetic mice receiving a Pluronic gel containing either control oligonucleotide (NT) or 2′OMe-miR-222 (AS) after 14 days. Data represent the mean±SEM and † indicates p<0.05 by ANOVA using Tukey's HSD.\nFIG. 14. […] Mean intima:media ratios of ND and DM mice following femoral artery wire injury and implantation of a Pluronic-F 127 gel containing either vehicle or rapamycin (100 μg) with and without administration of the ERK pathway inhibitor, U0126 (7.5 mg/kg/d). Bars indicate p<0.05 by ANOVA."}, "[2]": {"test_system": "miR-221/222", "experiment": "miR-221 and miR-222 levels in injured femoral arteries by quantitative real-time PCR", "assay_type": "in vivo", "conditions": "diabetic mice; Pluronic gel on injured femoral artery; 7 days", "description": "FIG. 7. Diabetes induces an increase in miR-221/222 levels in arteries. Total RNA was prepared from injured femoral arteries of diabetic and non-diabetic mice receiving a Pluronic gel containing either control oligonucleotide (NT) or 2′OMe-miR-222 (AS) for 7 days. Levels of miR-221 and miR-222 were measured using quantitative real-time PCR with U6 as a loading control. Data is normalized to the ND. Data represent the mean±SEM and † indicates p<0.05 by ANOVA using Tukey's HSD."}, "[3]": {"test_system": "p27^Kip1", "experiment": "p27Kip1 protein ELISA in injured femoral arteries", "assay_type": "in vivo", "conditions": "diabetic mice; Pluronic gel on injured femoral artery; 7 days", "description": "FIG. 9. Diabetes induces an increase in miR-221/222 that reduces p27^Kip1 levels in arteries Protein lysates were prepared from injured femoral arteries of diabetic and non-diabetic mice receiving a Pluronic gel containing either control oligonucleotide (NT) or 2′OMe-miR-222 (AS) after 7 days. Levels of p27^Kip1 protein levels were measured using an ELISA kit. Data is normalized to the ND. Data represent the mean±SEM and † indicates p<0.05 by ANOVA using Tukey's HSD."}, "[4]": {"test_system": "miR-221/222", "experiment": "miR-221/222 levels in VSMCs incubated with AMPK agonist", "assay_type": "cell-based", "conditions": "VSMCs from diabetic mice; 3 h incubation", "description": "FIG. 11. The increase in miR-221/222 in VSMCs from the DM mice is reversed by AMPK activation. miR-221/222 levels were measured in VSMCs from non-diabetic and diabetic mice incubated with vehicle (Con) and the AMPK agonist, Metformin (Met) for 3 h. Data represent the mean±SEM.\nFIG. 12. The increase in miR-221/222 in VSMCs from the DM mice is reversed by AMPK activation. miR-221/222 levels were measured in VSMCs from non-diabetic and diabetic mice incubated with vehicle (Con) and the AMPK agonist, AICAR for 3 h. Data represent the mean±SEM."}, "[5]": {"test_system": "p27^Kip1 mRNA", "experiment": "Half-life of p27Kip1 mRNA in serum-stimulated VSMCs", "assay_type": "cell-based", "conditions": "VSMCs from diabetic mice stimulated with serum", "description": "FIG. 4. Increased ERK activation promotes loss of p27^Kip1 in diabetic mice. A) The ratio of phosphorylated (active) ERK to total ERK in the aortae of non-diabetic (ND) mice and diabetic mice receiving either vehicle (DM) or the ERK pathway inhibitor (DM+EI) U0126, ip, 7.5 mg/kg/d for 3 days). p27^Kip1 protein (B) and mRNA (C) levels in the same mice as in A. D and E) The half-life of p27^Kip1 mRNA in VSMCs from DM and ND mice stimulated with serum with and without the ERK pathway inhibitor PD98059 (D,PD) or siRNA targeting ERK (E, ERK siRNA). † indicate p<0.05 by ANOVA (B and D) or Student's t-test (E and F)."}, "[6]": {"test_system": "non-diabetic animals", "conditions": "previous reports (9); cited from earlier work"}, "[7]": {"test_system": "miR-221/222", "conditions": "diabetic mice; 3 d post-injury or sham", "description": "FIG. 6. […] Femoral artery wire injury or sham procedure was performed in the non-diabetic (ND) and diabetic (DM) mice and miR-221 levels were measured 3d post-injury. A group of MF-12 mice (Sham+EI) received a MEK1 inhibitor (U0126, […]). Data represent the mean±SEM."}, "[8]": {"test_system": "miR-221/222", "experiment": "miR-221/222 levels in internal mammary arteries of coronary artery bypass patients by real-time PCR", "assay_type": "in vivo, human", "conditions": "diabetic patients currently taking metformin (DMMet+), coronary artery bypass surgery", "description": "FIG. 13. miR-221/222 are reduced in the vasculature of diabetic patients taking the AMPK agonist metformin. miR-221/222 levels were measured using real-time PCR methods in the internal mammary arteries of non-diabetic (ND), diabetic subjects currently taking metformin (DMMet+), and diabetic subjects not taking metformin (DMMet−) undergoing coronary artery bypass surgery. […] Data represent the mean±SEM."}}, "note": "Entries after “also recorded” stand apart in the source; their conditions may differ.", "data": [{"compound": "2′OMe-miR-222: silencing RNA, 2′-O-methylated, directly inhibiting miR-221/222; sequence 5′-ACCCAGUAGCCAGAUGUAGCU-3′ (likely SEQ ID NO 4) (all 2'-O-methyl, backbone not given here)", "values": [{"measurement": "intimal thickening", "setting": "[1]; diabetic mice, Pluronic gel on wire injured femoral artery, 14 days", "value": "effective at reducing intimal thickening in the diabetic mice to levels similar to that of normal mice"}, {"measurement": "miR-221/222 levels in the vasculature", "setting": "[2]", "value": "reduces miR-221/222 levels back to normal"}, {"measurement": "p27Kip1 protein levels", "setting": "[3]", "value": "restores levels of p27^Kip1 protein to normal levels"}]}, {"compound": "NC(=O)c1ncn([C@@H]2O[C@H](CO)[C@@H](O)[C@H]2O)c1N", "note": "[AICAR]", "values": [{"measurement": "miR-221/222 levels in VSMCs", "setting": "[4]", "value": "effective in reducing miR-221/222 in the VSMCs from diabetic mice to levels similar to VSMCs from non-diabetic mice"}]}, {"compound": "COc1cccc(-c2cc(=O)c3ccccc3o2)c1N", "note": "[PD98059]", "values": [{"measurement": "accelerated degradation (half-life) of p27Kip1 mRNA", "setting": "[5]", "value": "effective at blocking the accelerated degradation"}, {"measurement": "cell proliferative aspect of intimal thickening following arterial injury", "setting": "[6]", "value": "not effective"}]}, {"compound": "N#CC(=C(/N)Sc1ccccc1N)/C(C#N)=C(\\N)Sc1ccccc1N", "note": "[U0126]", "values": [{"measurement": "intimal hyperplasia following wire injury", "setting": "[1]; diabetic mice, U0126 7.5 mg/kg/d", "value": "reduces intimal hyperplasia"}, {"measurement": "sensitivity of intimal thickening to rapamycin", "setting": "[1]; diabetic mice, U0126 7.5 mg/kg/d co-administered with local rapamycin 100 μg, 7.5 mg/kg/day", "value": "restores sensitivity to rapamycin; also recorded: restores the ability of rapamycin to intimal thickening"}, {"measurement": "intimal thickening (intima:media ratio)", "setting": "[1]; non-diabetic mice, U0126 7.5 mg/kg/d co-administered with local rapamycin", "value": "minimal effects"}, {"measurement": "increase in miR-221/222 levels in the vasculature", "setting": "[7]", "value": "blocked"}]}, {"compound": "CN(C)C(=N)N=C(N)N", "note": "[metformin]", "values": [{"measurement": "miR-221/222 levels in VSMCs", "setting": "[4]", "value": "effective in reducing miR-221/222 in the VSMCs from diabetic mice to levels similar to VSMCs from non-diabetic mice"}, {"measurement": "miR-221/222 levels in internal mammary arteries", "setting": "[8]", "value": "normal levels"}]}]}
